Like-named read-outs stand apart in the source and are kept apart here.
Tests used:
[1] = system: mitochondrial membrane potential (MMP) in AREc32 cells; conditions: for SRcytotoxicity: human
[2] = system: mitochondrial membrane potential (MMP) in AREc32 cells; test: Disruption of mitochondrial membrane potential (m-MPI red/green ratio), MitoOxTox; conditions: for EC10: MMP, AREc32, 24 h; for SRcytotoxicity: specificity ratio of MMP effect: IC10 (ImageXpress)/EC10 (eq 4)
[3] = cited from earlier work
AREc32 cells [4] = test: Cytotoxicity (cell confluency) with IncuCyte S3 live cell imaging, MitoOxTox
AREc32 cells [5] = test: Cytotoxicity with ImageXpress high-content imaging, MitoOxTox
[6] = system: Nrf2-mediated oxidative stress response pathway (ARE) in AREc32 cells; test: cells; conditions: Arec32, 24 h, read-out: Oxidative stress response ECIR1.5 (M)
[7] = system: Nrf2-mediated oxidative stress response pathway (ARE) in AREc32 cells
AREc32 cells [8] = system: AREc32 cells
AREc32 cells [9] = conditions: for Cytotoxicity Incucyte IC10: human
[10] = logarithm of EC10, AREc32, 24 h exposure
[11] = 10% reduction in cell viability, AREc32, 24 h exposure
[12] = logarithm of IC10, AREc32, 24 h exposure, Corning plates
[13] = 10% reduction of MMP, AREc32, 24 h exposure
[14] = effect concentration leading to induction ratio 1.5, AREc32, 24 h exposure

| Compound | EC (induction ratio 1.5) [6] | Cytotoxicity Incucyte IC10 (AREc32 cells [4]; [11]) | Cytotoxicity ImageExpress IC10 (AREc32 cells [5]; [11]) | Cytotoxicity ImageExpress log(IC10 (M)) (AREc32 cells [5]; [12]) | MMP inhibition EC10 [2, 13] | MMP inhibition log(EC10 (M)) [2, 10] | log Kow [L/L] ([3]; experimental, ref PhysPropNCCT) | also measured |
| --- | --- | --- | --- | --- | --- | --- | --- | --- |
| CCCCOCCO [2-Butoxyethanol] | – | – | – | – | – | – | – | MMP inhibition log(EC10 (M)) [1, 10]: -1.97 M; EC10 [2]: 10700 µM; log Kow [L/L] ([3]; ref Vaes et al. 1997b): 0.83 L/L |
| Cc1cc(O)ccc1Cl [4-Chloro-3-methylphenol] | – | – | – | – | – | – | – | Cytotoxicity Incucyte IC10 (AREc32 cells [4]): 111 µM; Cytotoxicity ImageExpress IC10 (AREc32 cells [5]): 161 µM; Cytotoxicity ImageExpress log(IC10 (M)) (AREc32 cells [5]): -3.79 M; MMP inhibition EC10 [2]: 13.5 µM; MMP inhibition log(EC10 (M)) [2]: -4.87 M |
| CCCCCc1ccc(O)cc1 [4-Pentylphenol] | > 0.000385 M | 57.1 µM | 87.6 µM | -4.06 M | 6.16 µM | -5.21 M | – | SRcytotoxicity [2]: 14.2; log Kow [L/L] ([3]; ref Vaes et al. 1997b): 4.24 L/L |
| CCCCCC[C@H]1C(=O)O[C@H](C)[C@H](NC(=O)c2cccc(NC=O)c2O)C(=O)O[C@@H](C)[C@@H]1OC(=O)CC(C)C [Antimycin A] | > 0.000129 M | 35.9 µM | 43.4 µM | -4.36 M | 0.000755 µM | -9.12 M | – | – |
| CO/C=C(/C(=O)OC)c1ccccc1Oc1cc(Oc2ccccc2C#N)ncn1 [Azoxystrobin] | – | > 105 µM | > 105 µM | no cytotoxicity | 15.9 µM | -4.80 M | 2.50 L/L | Oxidative stress response ECIR1.5 [7, 14]: > 105 µM; Cytotoxicity Incucyte log(IC10 (M)) (AREc32 cells [4]; [12]): no cytotoxicity |
| COc1ccc2cc3[n+](cc2c1OC)CCc1cc2c(cc1-3)OCO2 [Berberine] | > 0.000135 M | 63.5 µM | 72.4 µM | -4.14 M | 0.0135 µM | -7.87 M | – | SRcytotoxicity [2]: 5365 |
| N#CC(C#N)=NNc1cccc(Cl)c1 [Carbonyl cyanide 3-chlorophenyl-hydrazone] | > 0.000355 M | 1.28 µM | 2.31 µM | -5.64 M | 0.247 µM | -6.61 M | 3.38 L/L | SRcytotoxicity [2]: 9.4 |
| N#CC(C#N)=NNc1ccc(OC(F)(F)F)cc1 [Carbonyl cyanide 4-(trifluoromethoxy)phenylhydrazone] | > 6.32e-05 M | 0.824 µM | 1.75 µM | -5.76 M | 0.0768 µM | -7.11 M | 3.68 L/L | SRcytotoxicity [2]: 22.8 |
| Cc1ccc(-c2c(Cl)nc(C#N)n2S(=O)(=O)N(C)C)cc1 [Cyazofamid] | > 5.41e-05 M | – | – | – | 36.7 µM | -4.44 M | – | Cytotoxicity ImageExpress log(IC10 (M)) (AREc32 cells [8]): no cytotoxicity; Cytotoxicity ImageExpress IC10 (AREc32 cells [8]; human, 24 h): > 54.1 µM; Cytotoxicity Incucyte log(IC10 (M)) (AREc32 cells [9]): no cytotoxicity; Cytotoxicity Incucyte IC10 (AREc32 cells [9]; 24 h): > 54.1 µM |
| COc1cc2c(cc1OC)[C@@H]1C(=O)c3ccc4c(c3O[C@@H]1CO2)C=CC(C)(C)O4 [Deguelin] | > 4.08e-05 M | 17.7 µM | 28.8 µM | -4.54 M | 0.013 µM | -7.89 M | – | SRcytotoxicity [1]: 2215 |
| CSC1=N[C@@](C)(c2ccccc2)C(=O)N1Nc1ccccc1 [Fenamidone] | > 0.000239 M | – | – | – | 13.1 µM | -4.88 M | – | SRcytotoxicity ([1]; 24 h): 9.5; Cytotoxicity ImageExpress IC10 (AREc32 cells [8]; human, 24 h): 125 µM; Cytotoxicity ImageExpress log(IC10 (M)) (AREc32 cells [8]; human, 24 h): -3.90 M; Cytotoxicity Incucyte IC10 (AREc32 cells [9]; 24 h): 118 µM |
| Cc1nn(C)c(Oc2ccccc2)c1C=NOCc1ccc(C(=O)OC(C)(C)C)cc1 [Fenpyroximate] | – | – | – | – | 0.00069 µM | -9.16 M | – | – |
| CO/N=C(/C1=NOCCO1)c1ccccc1Oc1ncnc(Oc2ccccc2Cl)c1F [Fluoxastrobin] | > 0.000153 M | 52.1 µM | > 153 µM | no cytotoxicity | 6.05 µM | -5.22 M | – | – |
| CC(C)Oc1cccc(NC(=O)c2ccccc2C(F)(F)F)c1 [Flutolanil] | > 0.000226 M | – | – | – | 25.2 µM | -4.60 M | 3.7 L/L | SRcytotoxicity [1]: 5.5; Cytotoxicity ImageExpress IC10 (AREc32 cells [8]; human): 138 µM; Cytotoxicity ImageExpress log(IC10 (M)) (AREc32 cells [8]; human): -3.86 M; Cytotoxicity Incucyte IC10 (AREc32 cells [9]): 106 µM |
| Oc1c(Cl)cc(Cl)c(Cl)c1Cc1c(O)c(Cl)cc(Cl)c1Cl [Hexachlorophene] | > 9.31e-05 M | – | – | – | – | – | – | SRcytotoxicity [1]: 38.6; Cytotoxicity ImageExpress IC10 (AREc32 cells [8]; human): 10.7 µM; Cytotoxicity ImageExpress log(IC10 (M)) (AREc32 cells [8]; human): -4.97 M; MMP inhibition EC10 [2]: 0.276 µM; MMP inhibition log(EC10 (M)) [2]: -6.56 M; Cytotoxicity Incucyte IC10 (AREc32 cells [9]): 5.46 µM |
| CC1(C)CNC(=NN=C(/C=C/c2ccc(C(F)(F)F)cc2)/C=C/c2ccc(C(F)(F)F)cc2)NC1 [Hydramethylnon] | > 4.04e-05 M | 0.878 µM | 1.11 µM | -5.96 M | 4.29 µM | -5.37 M | – | – |
| Cc1ccccc1C(=O)Nc1cccc(OC(C)C)c1 [Mepronil] | > 0.000153 M | – | – | – | 31.2 µM | -4.51 M | 3.66 L/L | Cytotoxicity ImageExpress IC10 (AREc32 cells [8]; human, 24 h): 72.9 µM; Cytotoxicity ImageExpress log(IC10 (M)) (AREc32 cells [8]; human, 24 h): -4.14 M; Cytotoxicity Incucyte IC10 (AREc32 cells [9]; 24 h): 58.7 µM |
| COC(=O)N(OC)c1ccccc1COc1ccn(-c2ccc(Cl)cc2)n1 [Pyraclostrobin] | > 0.000103 M | 82.4 µM | 61.4 µM | -4.21 M | 0.208 µM | -6.68 M | 3.99 L/L | SRcytotoxicity [1]: 295.0 |
| CC(C)(C)c1ccc(CSc2cnn(C(C)(C)C)c(=O)c2Cl)cc1 [Pyridaben] | > 0.000161 M | – | – | – | 0.00273 µM | -8.56 M | 6.37 L/L | Cytotoxicity ImageExpress log(IC10 (M)) (AREc32 cells [8]): no cytotoxicity; Cytotoxicity ImageExpress IC10 (AREc32 cells [8]; human, 24 h): > 161 µM; Cytotoxicity Incucyte IC10 (AREc32 cells [9]; 24 h): 51.4 µM |
| CCOCCc1ccc(OCCN=c2[nH]cnc(CC)c2Cl)c(C)c1C [Pyrimidifen] | > 0.000136 M | 55.3 µM | 56.1 µM | -4.25 M | 0.00271 µM | -8.57 M | – | SRcytotoxicity [2]: 20693 |
| C=C(C)[C@H]1Cc2c(ccc3c2O[C@@H]2COc4cc(OC)c(OC)cc4[C@@H]2C3=O)O1 [Rotenone] | > 6.57e-07 M | – | – | – | 0.00531 µM | -8.27 M | 4.1 L/L | SRcytotoxicity [1]: 46; Cytotoxicity ImageExpress IC10 (AREc32 cells [8]; human): 0.242 µM; Cytotoxicity ImageExpress log(IC10 (M)) (AREc32 cells [8]; human): -6.62 M; Cytotoxicity Incucyte IC10 (AREc32 cells [9]): 0.212 µM |
| CCc1nn(C)c(C(=O)NCc2ccc(C(C)(C)C)cc2)c1Cl [Tebufenpyrad] | > 0.000214 M | 157 µM | 192 µM | -3.72 M | 0.00573 µM | -8.24 M | 4.61 L/L | SRcytotoxicity [1]: 33496 |
| Cc1nc(C(F)(F)F)c(C(=O)Nc2c(Br)cc(OC(F)(F)F)cc2Br)s1 [Thifluzamide] | > 3.16e-05 M | 11.3 µM | 23.4 µM | -4.63 M | 2.92 µM | -5.53 M | – | SRcytotoxicity [2]: 8.0 |
| CON=C(C(=O)OC)c1ccccc1CON=C(C)c1cccc(C(F)(F)F)c1 [Trifloxystrobin] | > 0.000123 M | – | – | – | 4.11 µM | -5.39 M | 4.50 L/L | Cytotoxicity ImageExpress log(IC10 (M)) (AREc32 cells [8]): no cytotoxicity; Cytotoxicity ImageExpress IC10 (AREc32 cells [8]; human, 24 h): > 123 µM; Cytotoxicity Incucyte log(IC10 (M)) (AREc32 cells [9]): no cytotoxicity; Cytotoxicity Incucyte IC10 (AREc32 cells [9]; 24 h): > 123 µM |
| Oligomycin A | – | – | – | – | 0.000235 µM | -9.63 M | – | Oxidative stress response ECIR1.5 [7, 14]: > 12.7 µM; EC10 [2]: 0.00024 µM |
| Tributyltin chloride | – | – | – | – | – | – | – | Oxidative stress response ECIR1.5 [7]: > 1.23 µM; MMP inhibition EC10 [2]: 0.0145 µM; MMP inhibition log(EC10 (M)) [2]: -7.84 M |
